According to US20260327193A1, “INHIBITORS OF PLASMA KALLIKREIN” (Rezolute, Inc., priority 2022, published 2026):

Key:
[1] = biological target: T1, Plasma Kallikrein (Homo sapiens, UniProt P03952); test: Plasma kallikrein protease inhibition assay, purified enzyme; format: biochemical; parameters: NS0-derived Gly20-Ala638, with a C-terminal 60-His tag; 60-His (so in the source) (C); purchased R&D Systems 2497-SE; host or cells: Mouse myeloma cell line, NS0; details: 10 μM Z-FR-AMC substrate, 20-minute pre-incubation, pH 8.0/8.5, room temperature, read-out: Purified PKal IC50
T1 sequence (P03952 391-638 limits assumed): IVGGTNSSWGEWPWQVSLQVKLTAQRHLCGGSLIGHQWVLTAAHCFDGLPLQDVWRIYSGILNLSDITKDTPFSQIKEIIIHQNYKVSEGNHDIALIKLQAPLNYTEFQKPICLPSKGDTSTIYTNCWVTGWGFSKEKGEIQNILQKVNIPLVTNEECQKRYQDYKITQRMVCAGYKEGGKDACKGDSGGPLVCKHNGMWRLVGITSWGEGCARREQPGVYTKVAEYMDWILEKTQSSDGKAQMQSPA
T1 sequence (P03952 20-390 partner limits assumed): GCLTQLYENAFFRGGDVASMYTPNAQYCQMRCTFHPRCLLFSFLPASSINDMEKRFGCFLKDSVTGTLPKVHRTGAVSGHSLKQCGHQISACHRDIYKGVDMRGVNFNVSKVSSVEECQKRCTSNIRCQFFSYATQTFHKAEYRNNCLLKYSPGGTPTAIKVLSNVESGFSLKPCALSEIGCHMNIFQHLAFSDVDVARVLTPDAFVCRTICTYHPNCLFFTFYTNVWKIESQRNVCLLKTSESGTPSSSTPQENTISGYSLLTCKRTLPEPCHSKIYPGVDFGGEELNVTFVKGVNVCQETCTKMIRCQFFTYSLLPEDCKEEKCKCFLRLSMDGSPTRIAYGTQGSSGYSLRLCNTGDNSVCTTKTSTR
Experimental: (§1) Plasma kallikrein protease inhibition assay. Two methods for determining the IC50 of a test compound against Plasma Kallikrein are provided.
In the first method was used a reaction buffer composed of 25 mM Tris-HCl (pH 8.0), 100 mM NaCl (pH 8.5), 0.01% Brij35, and 1% DMSO (final). The enzyme used was Plasma Kallikrein (R&D Systems Cat #2497-SE; Recombinant Human Plasma Kallikrein, expressed in Mouse myeloma cell line, NS0-derived Gly20-Ala638, with a C-terminal 60-His tag. MW=70 kDa).
The enzyme was activated by dilution to 200 μg/mL in activation buffer (100 mM Tris, 10 mM CaCl2, 150 mM NaCl, pH 7.5 (TCN), and then combined with an equal volume of 20 μg/mL thermolysin to form a reaction buffer. Each test compound was then dissolved in DMSO and delivered into the reaction buffer. The reaction was initiated by delivering a substrate solution containing 10 μM Z-FR-AMC (Enzo Cat #P-139; AMC: 7-Amino-4-methylcoumarin) into the reaction well after a 20-minute pre-incubation period.
Measurement was conducted with En Vision (PE) with excitation and emission wavelengths of 355 nm and 460 nm, respectively. […]. The enzyme activities were monitored every 5 minutes as a time-course measurement of the increase in signal from fluorescently labeled peptide substrate for 120 minutes at room temperature.
Data was analyzed by taking slope*(signal/time) of the linear portion of measurements. Slope was calculated using Excel, and curve fits were performed using Prism software.

[2] = biological target: T1, Plasma Kallikrein; test: Plasma kallikrein activity in pooled human plasma; format: biochemical; parameters: Plasma Kallikrein activity was also measured in pooled human plasma; from tissue; host or cells: pooled human plasma; details: Z-FR-AMC substrate, activated with 10% Actin FS solution, 10 minutes, read-out: Pooled Human Plasma PKal IC50
Experimental: as §1
Second, Plasma Kallikrein activity was also measured in pooled human plasma. First, a 10% Actin FS solution was prepared in assay buffer. Each test compound was dissolved in DMSO and delivered to the reaction mixture along with Z-FR-AMC substrate and pooled human plasma. The multi-well reaction plate was incubated for five minutes at room temperature. To initiate the reaction, the 10% Actin FS solution was added to each well, and kinetic measurements were taken at Ex/Em at 355/460 nm. The fluorescence signal was recorded every 30 seconds for a total of 10 minutes.

Compound | IC50 [1] [nM] | IC50 [2] [nM]
COCCc1ccc(Cn2cc(C(=O)NCc3ccc(C(=N)N)c(F)c3)cn2)cc1 [Example 73, N-(4-carbamimidoyl-3-fluorobenzyl)-1-(4-(2-methoxyethyl)benzyl)-1H-pyrazole-4-carboxamide] | 1 to 10 | < 100
COCc1c(C(=O)NCc2ccc(C(=N)N)cc2)cnn1Cc1ccc(CC#N)cc1 [Example 85, N-(4-carbamimidoylbenzyl)-1-(4-(cyanomethyl)benzyl)-5-(methoxymethyl)-1H-pyrazole-4-carboxamide] | 10 to 100 | 100 to 1000
CC(C)(C#N)c1ccc(Cn2ncc(C(=O)NCc3ccc(C(=N)N)cc3)c2C2CC2)cc1 [Example 83, N-(4-carbamimidoylbenzyl)-1-(4-(2-cyanopropan-2-yl)benzyl)-5-cyclopropyl-1H-pyrazole-4-carboxamide] | 10 to 100 | 100 to 1000
CC(C)(C#N)c1ccc(Cn2cc(C(=O)NCc3cc(F)c(C(=N)N)c(F)c3)cn2)cc1 [Example 44, N-(4-carbamimidoyl-3,5-difluorobenzyl)-1-(4-(2-cyanopropan-2-yl)benzyl)-1H-pyrazole-4-carboxamide] | > 100 | > 1000
Cc1c(C(=O)NCc2ccc(C(=N)N)cc2)cnn1Cc1ccc(C(C)(C)C#N)cc1 [Example 81, N-(4-carbamimidoylbenzyl)-1-(4-(2-cyanopropan-2-yl)benzyl)-5-methyl-1H-pyrazole-4-carboxamide] | < 1 | < 100
CNC(=O)Cc1ccc(Cn2cc(C(=O)NCc3ccc(C(=N)N)c(F)c3)cn2)cc1 [Example 74, N-(4-carbamimidoyl-3-fluorobenzyl)-1-(4-(2-(methylamino)-2-oxoethyl)benzyl)-1H-pyrazole-4-carboxamide] | 1 to 10 | 100 to 1000
COCc1c(C(=O)NCc2ccc(C(=N)N)cc2)cnn1Cc1ccc(C(C)(C)C#N)cc1 [Example 82, N-(4-carbamimidoylbenzyl)-1-(4-(2-cyanopropan-2-yl)benzyl)-5-(methoxymethyl)-1H-pyrazole-4-carboxamide] | 10 to 100 | < 100
N#Cc1ccc(Cc2ccc(Cn3cc(C(=O)NCc4ccc(C(=N)N)cc4)cn3)cc2)cc1 [Example 14, N-(4-carbamimidoylbenzyl)-1-(4-(4-cyanobenzyl)benzyl)-1H-pyrazole-4-carboxamide] | < 1 | 100 to 1000
N#CCc1ccc(Cc2cc(C(=O)NCc3ccc(C(=N)N)cc3)sn2)cc1 [Example 11] | 1 to 10 | 
N#CCc1ccc(Cc2cc(C(=O)NCc3ccc(C(=N)N)cc3)on2)cc1 [Example 10, N-(4-carbamimidoylbenzyl)-3-(4-(cyanomethyl)benzyl) isoxazole-5-carboxamide] | 1 to 10 | 
COCCc1cccc(Cn2cc(C(=O)NCc3ccc(C(=N)N)cc3)cn2)c1 [Example 69, N-(4-carbamimidoylbenzyl)-1-(3-(2-methoxyethyl)benzyl)-1H-pyrazole-4-carboxamide] | 1 to 10 | < 100
N#CCc1ccc(Cn2cc(C(=O)NCc3ccc(C(=N)N)c(F)c3)cn2)cc1 [Example 72, N-(4-carbamimidoyl-3-fluorobenzyl)-1-(4-(cyanomethyl)benzyl)-1H-pyrazole-4-carboxamide] | 10 to 100 | 100 to 1000
N#CCc1ccccc1Cn1cc(C(=O)NCc2ccc(C(=N)N)cc2)cn1 [Example 70, N-(4-carbamimidoylbenzyl)-1-(2-(cyanomethyl)benzyl)-1H-pyrazole-4-carboxamide] | 10 to 100 | 100 to 1000
COCc1c(C(=O)NCc2ccc(C(=N)N)c(F)c2)cnn1Cc1ccc(CC#N)cc1 [Example 75, N-(4-carbamimidoyl-3-fluorobenzyl)-1-(4-(cyanomethyl)benzyl)-5-(methoxymethyl)-1H-pyrazole-4-carboxamide] | > 100 | > 1000
COCc1ccc(Cn2cc(C(=O)NCc3ccc(C(=N)N)cc3)cn2)cc1 [Example 71, N-(4-carbamimidoylbenzyl)-1-(4-(methoxymethyl)benzyl)-1H-pyrazole-4-carboxamide] | < 1 | < 100
N=C(N)c1ccc(CNC(=O)c2cnn(Cc3ccc(CO)cc3)c2)cc1 [Example 2, N-(4-carbamimidoylbenzyl)-1-(4-(hydroxymethyl)benzyl)-1H-pyrazole-4-carboxamide] | 1 to 10 | < 100
CCCc1c(C(=O)NCc2ccc(C(=N)N)cc2)ncn1Cc1ccc(C(C)(C)C#N)cc1 [Example 84, N-(4-carbamimidoylbenzyl)-1-(4-(2-cyanopropan-2-yl)benzyl)-5-propyl-1H-imidazole-4-carboxamide] | > 100 | > 1000
N#Cc1ccn(-c2ccc(Cn3cc(C(=O)NCc4ccc(C(=N)N)cc4)cn3)cc2)c1 [Example 25, N-(4-carbamimidoylbenzyl)-1-(4-(3-cyano-1H-pyrrol-1-yl)benzyl)-1H-pyrazole-4-carboxamide] | < 1 | < 100
CC(C#N)c1ccc(Cn2cc(C(=O)NCc3ccc(C(=N)N)cc3)cn2)cc1 (stereo not drawn) [Example 5, N-(4-carbamimidoylbenzyl)-1-(4-(1-cyanoethyl)benzyl)-1H-pyrazole-4-carboxamide] | 1 to 10 | 
N#CCc1ccc(Cn2ncc(C(=O)NCc3ccc(C(=N)N)cc3)c2C2CC2)cc1 [Example 86, N-(4-carbamimidoylbenzyl)-1-(4-(cyanomethyl)benzyl)-5-cyclopropyl-1H-pyrazole-4-carboxamide] | 10 to 100 | 100 to 1000
N#Cc1ccc(-c2ccc(Cn3cc(C(=O)NCc4ccc(C(=N)N)cc4)cn3)cc2)cc1 [Example 13, N-(4-carbamimidoylbenzyl)-1-((4′-cyano-[1,1′-biphenyl]-4-yl)methyl)-1H-pyrazole-4-carboxamide] | < 1 | < 100
